Laboratory results: US20240360175A1, “PEPTIDE DERIVATIVES AND RELATED USES AS OREXIN AGONISTS” (Centessa Pharmaceuticals (UK) Limited, priority 2021, published 2024)
Numbered stars: 1 amine (or outer) side, 2 acyl side, 3 side chain; on linkers, the order of the positions; unused ones are H or OH. Square brackets hold non-standard residues; d marks the D form. Peptide text beside a SMILES is read from it. * marks the point of attachment. Malonyl(2,2-Me2,histaminyl) = CC(C)(C(=O)NCCc1cnc[nH]1)C(=O)*; Gly(N-CH2CH2(4-MeOPh)) = COc1ccc(CCNCC(=O)O)cc1; hArg(Et2) = CCN=C(NCC)NCCCC[C@H](N)C(=O)O; Phe(3-Br) = N[C@@H](Cc1cccc(Br)c1)C(=O)O; X1 = O=C(CN(CCc1ccc2ccccc2c1)[*:1])[*:2]; X2 = O=C([C@@H](N[*:1])c1cccc(O)c1)[*:2]; X6 = O=C(CN(CCc1cccc2ccccc12)[*:1])[*:2]; X3 = NCCc1cccc(CCN(CC(=O)[*:2])[*:1])c1; Gly(NCH2CH2Ph) = O=C(O)CNCCc1ccccc1; PEG6 = NCCOCCOCCOCCOCCOCCOCCC(=O)O; Hyp = O=C(O)[C@@H]1C[C@@H](O)CN1; Hpg = N[C@H](C(=O)O)c1ccc(O)cc1; NMeN = CN[C@@H](CC(N)=O)C(=O)O; X5 = COCCOCCOCCOCCOCCOCCC(=O)*; Aoc(2) = CCCCCC[C@H](N)C(=O)O; Phg = N[C@H](C(=O)O)c1ccccc1; Nle = CCCC[C@H](N)C(=O)O

Assays:
[1] = target: T1, human orexin type 1 receptor (hOX1R) (Homo sapiens, UniProt O43613); experiment: Measurement of orexin type 1 receptor agonist activity (FLIPR TETRA intracellular Ca2+ fluorescence); assay type: cell-based; conditions: CHO cells expressing hOX1R; agonist activity, Ca2+ fluorescence; read-out: hOX1 pEC50 (converted)
T1 construct: expressed in transfected cells
T1 sequence (O43613 1-425): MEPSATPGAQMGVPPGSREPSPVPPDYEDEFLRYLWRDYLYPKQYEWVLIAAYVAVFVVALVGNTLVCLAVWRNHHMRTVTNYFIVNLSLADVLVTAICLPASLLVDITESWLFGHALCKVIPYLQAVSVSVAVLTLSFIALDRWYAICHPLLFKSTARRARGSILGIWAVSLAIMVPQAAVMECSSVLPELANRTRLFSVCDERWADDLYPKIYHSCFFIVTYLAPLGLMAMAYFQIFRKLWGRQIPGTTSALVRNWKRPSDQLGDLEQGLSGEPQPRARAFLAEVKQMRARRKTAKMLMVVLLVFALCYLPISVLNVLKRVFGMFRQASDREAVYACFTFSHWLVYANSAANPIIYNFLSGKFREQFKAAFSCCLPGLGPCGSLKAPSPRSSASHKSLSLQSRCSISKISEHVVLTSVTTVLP
Protocol: (§1) Stable cell line generation. Obtainment of cells stably expressing either human orexin type 2 or human orexin type 1 receptor: to obtain a stable cell line the Orexin receptor cDNA was inserted into pcDNA3.1(+) plasmid vector and clones identified by G418 drug resistance selection. […] A single clone for OX2R—CHO and OX1R—CHO were grown in bulk and frozen to generate a cell bank for routine screening.
(§2) Measurement of orexin type 1 receptor agonist activity. Chinese hamster ovary (CHO) cells expressing human orexin type 1 receptor (hOX1R) were seeded in each well of 384 well black clear bottom plates (BD Flacon) at 10,000 cells per well and cultured for 24 h in an Ham's F12 (Gibco) medium containing 10% fetal calf serum (Sigma Aldrich) under the conditions of 37° C., 5% CO2. After removal of the medium, 50 μL of assay buffer 1 (0.1% bovine serum albumin (Sigma Aldrich), 20 mM HEPES (Molecular Dimensions), […] probenecid (Sigma Aldrich), 1× Calcium 5 dye (Molecular Devices) in Hank's balanced salt solution (Invitrogen)) was added, and the cells were incubated for 60 min under the conditions of 37° C., 5% CO2. A test peptide was dissolved in dimethyl sulfoxide (Sigma Aldrich) to 1 mM, and then diluted with assay buffer 2 (20 mM HEPES, Hank's balanced salt solution, 0.1% bovine serum albumin). For the reaction, a test peptide solution (10 μl) was added using Fluorescent Imaging Plate Reader TETRA (FLIPR TETRA: manufactured by Molecular Devices), a fluorescence value (excitation wavelength 488 nm, measurement wavelength 570 nm) of each well was measured every one second for 2 min, and the agonist activity was determined using the area of the fluorescence value as an indicator of intracellular Ca^2+ concentration. The agonist activity of the test peptide was calculated assuming that the fluorescence value of the well added with only the dilution buffer was 0% and the fluorescence value of the well added with 10 nM human orexin A (Tocris) buffer was 100%. As used herein, Emax indicates the value at 1 μM concentration when orexin A is converted to a full agonist (maximum value of agonist activity: 100%).

[2] = target: T2, human orexin type 2 receptor (hOX2R) (Homo sapiens, UniProt O43614); experiment: Measurement of orexin type 2 receptor agonist activity (FLIPR TETRA intracellular Ca2+ fluorescence); assay type: cell-based; conditions: CHO cells expressing hOX2R; agonist activity, Ca2+ fluorescence; read-out: hOX2 pEC50 (converted)
T2 construct: expressed in transfected cells
T2 sequence (O43614 1-444): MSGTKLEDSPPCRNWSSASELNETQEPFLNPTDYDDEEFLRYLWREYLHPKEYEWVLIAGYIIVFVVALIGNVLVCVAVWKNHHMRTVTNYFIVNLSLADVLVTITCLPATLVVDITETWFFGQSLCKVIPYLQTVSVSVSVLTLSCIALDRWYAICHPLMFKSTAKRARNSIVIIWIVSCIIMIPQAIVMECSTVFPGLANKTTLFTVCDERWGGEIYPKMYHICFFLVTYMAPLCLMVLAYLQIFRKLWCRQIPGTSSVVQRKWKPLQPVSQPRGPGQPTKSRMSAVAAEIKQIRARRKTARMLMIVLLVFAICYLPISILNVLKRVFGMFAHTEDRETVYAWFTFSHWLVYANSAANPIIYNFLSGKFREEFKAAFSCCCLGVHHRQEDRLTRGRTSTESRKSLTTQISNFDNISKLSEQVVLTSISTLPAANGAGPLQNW
Protocol: as §1
as §2, with “type 2” for “type 1”, “receptor (hOX2R)” for “receptor (hOX1R) were”

| Compound | EC50 [1] | EC50 [2] |
| --- | --- | --- |
| CC[C@H](C)[C@H](NC(=O)CNC(=O)[C@@H](NC(=O)[C@H](C)NC(=O)[C@@H]1C[C@@H](O)CN1C(=O)[C@H](CC(N)=O)NC(=O)CN(CCc1ccc2ccccc2c1)C(=O)[C@@H](N)CCCNC(=N)N)c1ccccc1)C(=O)N[C@@H](CC(C)C)C(=O)N[C@H](C(=O)N[C@@H](Cc1cccc(Br)c1)C(N)=O)[C@@H](C)O [Peptide 13] (H-R[X1]N[Hyp]A[Phg]GILT[Phe(3-Br)]-NH2) | 1 to 10 nM | < 0.1 nM |
| CCCCCC[C@H](NC(=O)[C@@H](NC(=O)[C@H](CC(C)C)NC(=O)[C@@H](NC(=O)CNC(=O)[C@@H](NC(=O)[C@H](C)NC(=O)[C@@H]1C[C@@H](O)CN1C(=O)[C@H](CC(N)=O)NC(=O)CN(CCc1ccccc1)C(=O)[C@@H](N)CCCNC(=N)N)c1ccccc1)[C@@H](C)CC)[C@@H](C)O)C(N)=O [Peptide 14] (H-R[Gly(NCH2CH2Ph)]N[Hyp]A[Phg]GILT[Aoc(2)]-NH2; N-terminus assumed) | > 10 nM | < 0.1 nM |
| CCCCCC[C@H](NC(=O)[C@@H](NC(=O)[C@H](CC(C)C)NC(=O)[C@@H](NC(=O)CNC(=O)[C@@H](NC(=O)[C@H](C)NC(=O)[C@@H]1C[C@@H](O)CN1C(=O)[C@H](CC(N)=O)NC(=O)CN(CCc1ccccc1)C(=O)[C@H](CCCCN/C(=N/CC)NCC)NC(=O)C(C)(C)C(=O)NCCc1cnc[nH]1)c1ccccc1)[C@@H](C)CC)[C@@H](C)O)C(N)=O [Peptide 15] ({Malonyl(2,2-Me2,histaminyl)}-[hArg(Et2)][Gly(NCH2CH2Ph)]N[Hyp]A[Phg]GILT[Aoc(2)]-NH2) | > 10 nM | < 0.1 nM |
| CC[C@H](C)[C@H](NC(=O)CNC(=O)[C@@H](NC(=O)[C@H](C)NC(=O)[C@@H]1C[C@@H](O)CN1C(=O)[C@H](CC(N)=O)NC(=O)CN(CCc1cccc2ccccc12)C(=O)[C@@H](N)CCCNC(=N)N)c1ccccc1)C(=O)N[C@@H](CC(C)C)C(=O)N[C@H](C(=O)N[C@@H](Cc1cccc(Br)c1)C(N)=O)[C@@H](C)O [Peptide 16] (H-R[X6]N[Hyp]A[Phg]GILT[Phe(3-Br)]-NH2) | 1 to 10 nM | < 0.1 nM |
| CCCCCC[C@H](NC(=O)[C@@H](NC(=O)[C@H](CC(C)C)NC(=O)[C@@H](NC(=O)CNC(=O)[C@@H](NC(=O)[C@H](C)NC(=O)[C@H](Cc1c[nH]cn1)NC(=O)[C@H](CC(N)=O)NC(=O)CN(CCc1ccccc1)C(=O)[C@@H](N)CCCCN/C(=N/CC)NCC)c1cccc(O)c1)[C@@H](C)CC)[C@@H](C)O)C(N)=O [Peptide 17] (H-[hArg(Et2)][Gly(NCH2CH2Ph)]NHA[X2]GILT[Aoc(2)]-NH2) | > 10 nM | < 0.1 nM |
| CCCCCC[C@H](NC(=O)[C@@H](NC(=O)[C@H](CC(C)C)NC(=O)[C@@H](NC(=O)CNC(=O)[C@@H](NC(=O)[C@H](C)NC(=O)[C@H](Cc1c[nH]cn1)NC(=O)[C@H](CC(N)=O)NC(=O)CN(CCc1ccc(OC)cc1)C(=O)[C@@H](N)CCCCN/C(=N/CC)NCC)c1ccccc1)[C@@H](C)CC)[C@@H](C)O)C(N)=O [Peptide 18] (H-[hArg(Et2)][Gly(N-CH2CH2(4-MeOPh))]NHA[Phg]GILT[Aoc(2)]-NH2) | > 10 nM | < 0.1 nM |
| CCCCCC[C@H](NC(=O)[C@@H](NC(=O)[C@H](CC(C)C)NC(=O)[C@@H](NC(=O)CNC(=O)[C@@H](NC(=O)[C@H](C)NC(=O)[C@@H]1C[C@@H](O)CN1C(=O)[C@H](CC(N)=O)N(C)C(=O)CN(CCc1cccc(CCN)c1)C(=O)[C@@H](N)CCCNC(=N)N)c1ccccc1)[C@@H](C)CC)[C@@H](C)O)C(N)=O [Peptide 19] (H-R[X3][NMeN][Hyp]A[Phg]GILT[Aoc(2)]-NH2) | > 10 nM | < 0.1 nM |

Next, values leading:

| EC50 [1] | EC50 [2] | Compound |
| --- | --- | --- |
| > 10 nM | < 0.1 nM | CCCCCC[C@H](NC(=O)[C@@H](NC(=O)[C@H](CC(C)C)NC(=O)[C@@H](NC(=O)CNC(=O)[C@@H](NC(=O)[C@H](C)NC(=O)[C@H](Cc1c[nH]cn1)NC(=O)[C@H](CC(N)=O)NC(=O)CN(CCc1ccccc1)C(=O)[C@@H](N)CCCCN/C(=N/CC)NCC)c1ccc(O)cc1)[C@@H](C)CC)[C@@H](C)O)C(N)=O [Peptide 20] (H-[hArg(Et2)][Gly(NCH2CH2Ph)]NHA[Hpg]GILT[Aoc(2)]-NH2) |
| > 10 nM | < 0.1 nM | CCCC[C@H](NC(=O)[C@@H](NC(=O)[C@H](CC(C)C)NC(=O)[C@@H](NC(=O)CNC(=O)[C@@H](NC(=O)[C@H](C)NC(=O)[C@H](Cc1c[nH]cn1)NC(=O)[C@H](CC(N)=O)NC(=O)CN(CCc1ccccc1)C(=O)[C@H](CCCNC(=N)N)NC(=O)CCOCCOCCOCCOCCOCCOCCN)c1ccccc1)[C@@H](C)CC)[C@@H](C)O)C(N)=O [Peptide 21] (H-[PEG6]R[Gly(NCH2CH2Ph)]NHA[Phg]GILT[Nle]-NH2) |
| > 10 nM | < 0.1 nM | CCCCCC[C@H](NC(=O)[C@@H](NC(=O)[C@H](CC(C)C)NC(=O)[C@@H](NC(=O)CNC(=O)[C@@H](NC(=O)[C@H](C)NC(=O)[C@@H]1C[C@@H](O)CN1C(=O)[C@H](CC(N)=O)NC(=O)CN(CCc1ccccc1)C(=O)[C@H](CCCNC(=N)N)NC(=O)CCOCCOCCOCCOCCOCCOC)c1ccccc1)[C@@H](C)CC)[C@@H](C)O)C(N)=O [Peptide 22] (X5-R[Gly(NCH2CH2Ph)]N[Hyp]A[Phg]GILT[Aoc(2)]-NH2) |
| > 10 nM | < 0.1 nM | CCCCCC[C@H](NC(=O)[C@@H](NC(=O)[C@H](CC(C)C)NC(=O)[C@@H](NC(=O)CNC(=O)[C@@H](NC(=O)[C@H](C)NC(=O)[C@H](CCC(N)=O)NC(=O)[C@H](CC(N)=O)NC(=O)CN(CCc1ccccc1)C(=O)[C@@H](N)CCCCN/C(=N/CC)NCC)c1ccc(O)cc1)[C@@H](C)CC)[C@@H](C)O)C(N)=O [Peptide 23] (H-[hArg(Et2)][Gly(NCH2CH2Ph)]NQA[Hpg]GILT[Aoc(2)]-NH2) |
| > 10 nM | < 0.1 nM | CCCCCC[C@H](NC(=O)[C@@H](NC(=O)[C@H](CC(C)C)NC(=O)[C@@H](NC(=O)CNC(=O)[C@@H](NC(=O)[C@H](C)NC(=O)[C@H](Cc1c[nH]cn1)NC(=O)[C@H](CC(N)=O)NC(=O)CN(CCc1ccccc1)C(=O)[C@@H](N)CCCCNC(=NCC)NCC)c1ccccc1)[C@@H](C)CC)[C@@H](C)O)C(N)=O [Peptide 24] (H-[hArg(Et2)][Gly(NCH2CH2Ph)]NHA[Phg]GILT[Aoc(2)]-NH2; N-terminus assumed) |
